Patent US8530493B2, “Indolopyridines as Eg5 kinesin modulators” (4SC AG, priority 2006, dated 2013)

Tests used:
[1] = system: RKO p27 uninduced (proliferating) colon adenocarcinoma cells; assay: Alamar Blue cell viability assay, RKO p27 uninduced (proliferating); format: cell-based; conditions: Homo sapiens, RKOp27, Table B1, anti-proliferative/cytotoxic activity, 72 hours, read-out: −log EC50 RKO p27 uninduced (proliferating) (converted)
Protocol: The anti-proliferative/cytotoxic activity of the compounds described herein can be tested on subclones of RKO human colon adenocarcinoma cells (Schmidt et al., Oncogene 19, 2423-2429; 2000) using the Alamar Blue cell viability assay (described in O'Brien et al. Eur J Biochem 267, 5421-5426, 2000). The compounds are dissolved as 10 mM solutions in DMSO and subsequently diluted in semi-logarithmic steps. DMSO dilutions are further diluted 1:100 into Dulbecco's modified Eagle's medium (DMEM) containing 10% fetal calf serum to a final concentration twice as much as the final concentration in the test. RKO subclones are seeded into 96 well flat bottom plates at a density of 4000 cells per well in a volume of 50 μl per well. 24 hours after seeding the 50 μl each of the compound dilutions in DMEM medium are added into each well of the 96 well plate. Each compound dilution is tested as triplicates. Wells containing untreated control cells are filled with 50 μl DMEM medium containing 1% DMSO. The cells are then incubated with the substances for 72 hours at 37° C. in a humidified atmosphere containing 5% carbon dioxide. To determine the viability of the cells, 10 μl of an Alamar Blue solution (Biosource) are added and the fluorescence is measured at an extinction of 544 nm and an emission of 590 nm. For the calculation of the cell viability the emission value from untreated cells is set as 100% viability and the emission rates of treated cells are set in relation to the values of untreated cells. Viabilities are expressed as % values. The Graphpad Prism program is used for the calculation of EC50 values for anti-proliferative/cytotoxic activity out of the obtained dose-response curves.
(§1) To determine the cell cycle specific mode of action, subclones of RKO colon adenocarcinoma cells (RKOp21 or RKOp27 as described by Schmidt et al. in Oncogene 19, 2423-2429; 2000) are seeded into 96 well flat bottom plates at a density of 16000 cells per well in a volume of 50 μl per well in DMEM growth medium with 10% FCS containing 10 μM Ponasterone A. 24 hours after seeding the 50 μl each of the compound dilutions in DMEM medium are added into each well of the 96-well plate. Each compound dilution is tested as triplicates. Wells containing untreated control cells are filled with 50 μl DMEM medium containing 1% DMSO. The cells are then incubated with the substances for 72 hours at 37° C. in a humidified atmosphere containing 5% carbon dioxide. To determine the viability of the cells, 10 μl of an Alamar Blue solution (Biosource) are added and the fluorescence is measured at an extinction of 544 nm and an emission of 590 nm. For the calculation of the cell viability the emission value from untreated cells is set as 100% viability and the emission rates of treated cells are set in relation to the values of untreated cells. Viabilities are expressed as % values. The Graphpad Prism program (GraphPad Software, Inc) is used for the calculation of EC50 values out of the obtained dose-response curves. Viability is compared of proliferating cells grown in the absence of the inducer Ponasterone A, versus viability of cells arrested by the expression of ectopic p27Kip1 induced by Ponasterone A.
(§2) Representative values for anti-proliferation/cytotoxicity [measured as −log EC50 (mol/l)] determined in the aforementioned assays follow from the following tables B1, B2 and B3, in which the numbers of the compounds correspond to the numbers of the examples.

[2] = system: RKO p27 induced (arrested) colon adenocarcinoma cells; assay: Alamar Blue cell viability assay, RKO p27 induced by Ponasterone A (arrested); format: cell-based; conditions: Homo sapiens, RKOp27, Table B1, cells arrested by Ponasterone A-induced p27Kip1, 72 hours, read-out: −log EC50 RKO p27 induced (arrested) (converted)
Protocol: as §1, §2

EC50 [2]	Structure (SMILES)	EC50 [1]
≥ 3160 nM	COc1ccc2[nH]c3c(c2c1)C[C@@]1(C)C(=O)N(CCCn2ccnc2)C(=O)N1[C@@H]3c1cccc(O)c1 (racemic) [Example 20, (3aSR,10RS)-10-(3-Hydroxy-phenyl)-2-(3-imidazol-1-yl-propyl)-6-methoxy-3a-methyl-3a,4,9,10-tetrahydro-2,9,10a-triaza-cyclopenta[b]fluorene-1,3-dione]	≤ 39.8 nM
≥ 3160 nM	CCNCCN1C(=O)N2[C@H](c3cccc(O)c3)c3[nH]c4ccc(OC)cc4c3C[C@@]2(C)C1=O (racemic) [Example 35, (3aSR,10RS)-2-(2-Ethylamino-ethyl)-10-(3-hydroxy-phenyl)-6-methoxy-3a-methyl-3a,4,9,10-tetrahydro-2,9,10a-triaza-cyclopenta[b]fluorene-1,3-dione]	≤ 39.8 nM
≥ 3160 nM	CCN(C)CCN1C(=O)N2[C@H](c3cccc(O)c3)c3[nH]c4ccc(Cl)cc4c3C[C@@]2(C)C1=O (racemic) [Example 40, (3aSR,10RS)-6-Chloro-2-[2-(ethyl-methyl-amino)-ethyl]-10-(3-hydroxy-phenyl)-3a-methyl-3a,4,9,10-tetrahydro-2,9,10a-triaza-cyclopenta[b]fluorene-1,3-dione]	≤ 39.8 nM
≥ 3160 nM	CN1C(=O)N2[C@H](c3cccc(O)c3)c3[nH]c4ccc(Cl)cc4c3C[C@@]2(C)C1=O (racemic) [Example 5, (3aSR,10RS)-6-Chloro-10-(3-hydroxy-phenyl)-2,3a-dimethyl-3a,4,9,10-tetrahydro-2,9,10a-triaza-cyclopenta[b]fluorene-1,3-dione]	39.8 to 251 nM
≥ 3160 nM	CC[C@@]12Cc3c([nH]c4ccc(OC)cc34)[C@@H](c3cccc(O)c3)N1C(=O)N(CCCN(C)C)C2=O (racemic) [Example 19, (3aSR,10RS)-2-(3-Dimethylamino-propyl)-3a-ethyl-10-(3-hydroxy-phenyl)-6-methoxy-3a,4,9,10-tetrahydro-2,9,10a-triaza-cyclopenta[b]fluorene-1,3-dione]	≤ 39.8 nM
≥ 3160 nM	CNCCN1C(=O)N2[C@H](c3cccc(O)c3)c3[nH]c4ccc(OC)cc4c3C[C@@]2(C)C1=O (racemic) [Example 27, (3aSR,10RS)-10-(3-Hydroxy-phenyl)-6-methoxy-3a-methyl-2-(2-methylamino-ethyl)-3a,4,9,10-tetrahydro-2,9,10a-triaza-cyclopenta[b]fluorene-1,3-dione]	≤ 39.8 nM
≥ 3160 nM	CN1C(=O)N2[C@H](c3cccc(O)c3)c3[nH]c4ccc(Br)cc4c3C[C@@]2(C)C1=O (racemic) [Example 4, (3aSR,10RS)-6-Bromo-10-(3-hydroxy-phenyl)-2,3a-dimethyl-3a,4,9,10-tetrahydro-2,9,10a-triaza-cyclopenta[b]fluorene-1,3-dione]	39.8 to 251 nM
≥ 3160 nM	CNCCN1C(=O)N2[C@H](c3cccc(O)c3)c3[nH]c4ccc(Cl)cc4c3C[C@@]2(C)C1=O (racemic) [Example 28, (3aSR,10RS)-6-Chloro-10-(3-hydroxy-phenyl)-3a-methyl-2-(2-methylamino-ethyl)-3a,4,9,10-tetrahydro-2,9,10a-triaza-cyclopenta[b]fluorene-1,3-dione]	≤ 39.8 nM
≥ 3160 nM	COc1ccc2[nH]c3c(c2c1)C[C@@]1(C)C(=O)N(CCN(C)C)C(=O)N1[C@@H]3c1cccc(O)c1 (single isomer, unassigned) [Example 7b, (−)-2-(2-Dimethylamino-ethyl)-10-(3-hydroxy-phenyl)-6-methoxy-3a-methyl-3a,4,9,10-tetrahydro-2,9,10a-triaza-cyclopenta[b]fluorene-1,3-dione]	≤ 39.8 nM
≥ 3160 nM	COc1ccc2[nH]c3c(c2c1)C[C@@]1(C)C(=O)N(CCNC2CC2)C(=O)N1[C@@H]3c1cccc(O)c1 (racemic) [Example 53, (3aSR,10RS)-2-(2-Cyclopropylamino-ethyl)-10-(3-hydroxy-phenyl)-6-methoxy-3a-methyl-3a,4,9,10-tetrahydro-2,9,10a-triaza-cyclopenta[b]fluorene-1,3-dione]	≤ 39.8 nM
≥ 3160 nM	CN(C)CCCN1C(=O)N2[C@H](c3cccc(O)c3)c3[nH]c4ccc(Cl)cc4c3C[C@@]2(C)C1=O (racemic) [Example 16, (3aSR,10RS)-6-Chloro-2-(3-dimethylamino-propyl)-10-(3-hydroxy-phenyl)-3a-methyl-3a,4,9,10-tetrahydro-2,9,10a-triaza-cyclopenta[b]fluorene-1,3-dione]	≤ 39.8 nM
≥ 3160 nM	CNCCN1C(=O)N2[C@H](c3cccc(O)c3)c3[nH]c4ccc(OC(F)F)cc4c3C[C@@]2(C)C1=O (racemic) [Example 42, (3aSR,10RS)-6-(1,1-Difluoro-methoxy)-10-(3-hydroxy-phenyl)-3a-methyl-2-(2-methylaminoethyl)-3a,4,9,10-tetrahydro-2,9,10a-triaza-cyclopenta[b]fluorene-1,3-dione]	≤ 39.8 nM
≥ 3160 nM	COCCOc1ccc2[nH]c3c(c2c1)C[C@@]1(C)C(=O)N(CCN(C)C)C(=O)N1[C@@H]3c1cccc(O)c1 (racemic) [Example 6, (3aSR,10RS)-2-(2-Dimethylamino-ethyl)-10-(3-hydroxy-phenyl)-6-(2-methoxy-ethoxy)-3a-methyl-3a,4,9,10-tetrahydro-2,9,10a-triaza-cyclopenta[b]fluorene-1,3-dione]	≤ 39.8 nM
≥ 3160 nM	CCN(C)CCN1C(=O)N2[C@H](c3cccc(O)c3)c3[nH]c4ccc(OC)cc4c3C[C@@]2(C)C1=O (racemic) [Example 52, (3aSR,10RS)-2-[2-(Ethyl-methyl-amino)-ethyl]-10-(3-hydroxy-phenyl)-6-methoxy-3a-methyl-3a,4,9,10-tetrahydro-2,9,10a-triaza-cyclopenta[b]fluorene-1,3-dione]	≤ 39.8 nM
≥ 3160 nM	COc1ccc2[nH]c3c(c2c1)C[C@@]1(C)C(=O)N(CCNC(C)C)C(=O)N1[C@@H]3c1cccc(O)c1 (racemic) [Example 47, (3aSR,10RS)-10-(3-Hydroxy-phenyl)-2-(2-isopropylamino-ethyl)-6-methoxy-3a-methyl-3a,4,9,10-tetrahydro-2,9,10a-triaza-cyclopenta[b]fluorene-1,3-dione]	≤ 39.8 nM
≥ 3160 nM	COc1ccc2[nH]c3c(c2c1)C[C@@]1(C)C(=O)N(C)C(=O)N1[C@@H]3c1cccc(O)c1 (racemic) [Example 3, (3aSR,10RS)-10-(3-Hydroxy-phenyl)-6-methoxy-2,3a-dimethyl-3a,4,9,10-tetrahydro-2,9,10a-triaza-cyclopenta[b]fluorene-1,3-dione]	≤ 39.8 nM
≥ 3160 nM	COc1ccc2[nH]c3c(c2c1)C[C@@]1(C)C(=O)N(CCN2CCC(F)(F)C2)C(=O)N1[C@@H]3c1cccc(O)c1 (racemic) [Example 34, (3aSR,10RS)-2-[2-(3,3-Difluoro-pyrrolidin-1-yl)-ethyl]-10-(3-hydroxy-phenyl)-6-methoxy-3a-methyl-3a,4,9,10-tetrahydro-2,9,10a-triaza-cyclopenta[b]fluorene-1,3-dione]	39.8 to 251 nM
≥ 3160 nM	C[C@@]12Cc3c([nH]c4ccc(Cl)cc34)[C@@H](c3cccc(O)c3)N1C(=O)N(CCN1CCCC1)C2=O (racemic) [Example 17, (3aSR,10RS)-6-Chloro-10-(3-hydroxy-phenyl)-3a-methyl-2-(2-pyrrolidin-1-yl-ethyl)-3a,4,9,10-tetrahydro-2,9,10a-triaza-cyclopenta[b]fluorene-1,3-dione]	≤ 39.8 nM
